Key:
Assay type in all cases: biochemical
α-chymotrypsin = target: T1, α-chymotrypsin (Bos taurus, UniProt P00766); assay: Inhibition of α-chymotrypsin; conditions: 0.03 mM Succ-Ala-Ala-Pro-Phe-AMC; for Chymotrypsin % I @: 10 μM, pH 7.5; for inhibition at 10 µM: pH 7.5, 10 μM, read-out: Chymotrypsin % I @
T1 construct: purchased Sigma Chem. Co. C-3142
Method: (§1) To evaluate inhibitory activity, stock solutions (40 times concentrated) of each compound to be tested were prepared in 100% anhydrous DMSO and 5 μL of each inhibitor preparation were aliquoted into each of three wells of a 96-well plate. Calpain I, prepared by a modification of the method of W. J. Lee et al. (Biochem. Internatl. 22: 163-171 (1990)), was diluted into assay buffer (i.e., 50 mM Tris, 50 mM NaCl, 1 mM EDTA, 1 mM EGTA, and 5 mM-mercaptoethanol, pH 7.5 including 0.2 mM Succ-Leu-Tyr-MNA) and 175 μL aliquoted into the same wells containing the independent inhibitor stocks as well as to positive control wells containing 5 μL DMSO, but no compound. To start the reaction, 20 μL of 50 mM CaCl2 in assay buffer was added to all wells of the plate, excepting three, which were used as background signal baseline controls. Substrate hydrolysis was monitored every 5 minutes for a total of 30 minutes using a Fluoroskan II fluorescence plate reader. Substrate hydrolysis in the absence of inhibitor was linear for up to 15 minutes.
(§2) Inhibition of calpain I activity was calculated as the percent decrease in the rate of substrate (S) hydrolysis in the presence of inhibitor (I) relative to the rate in its absence (o). Comparison between the inhibited and control rates was made within the linear range for substrate hydrolysis. For screening, compounds were tested at 10 μM. Compounds having 50% inhibition at 10 μM were considered active. The IC50s of inhibitors (concentration yielding 50% inhibition) were determined from the percent decrease in the rates of substrate hydrolysis in the presence of five to seven different concentrations of the test compound. The results were plotted as % inhibition versus log inhibitor concentration and the IC50 was calculated from linear regression of the data. Apparent second order rate constants were determined from analysis of reaction progress curves under pseudo-first order conditions. Each determination represents the means of three or more independent single cuvette analyses continually monitored via a Perkin-Elmer LS50B spectrofluorimeter. The rate of inhibition of hydrolysis was obtained by fitting the curve to the exponential equation (1):
(§3) Additionally, because α-chymotrypsin is not a calcium sensitive enzyme and is constitutively active, following addition of inhibitor stocks to the 96 well plates, 100 μl of a 2-fold concentrated stock of enzyme in dilution buffer was first added and the reaction started by addition of 100 μl of a 2-fold concentrated stock of substrate in assay buffer. Substrate hydrolysis was monitored every 5 minutes up to 30 minutes using a Fluoroskan II ([…]).

cathepsin B = target: T2, cathepsin B (Homo sapiens, UniProt P07858); assay: Inhibition of cathepsin B; conditions: Cbz-Phe-Arg-AMC 0.1 mM; for Cat B % I @ 1 uM: pH 6.0; for inhibition at 1 µM: pH 6, 1 uM, read-out: Cat B % I @ 1 uM
T2 construct: purchased Calbiochem 219364

cathepsin L = target: T3, cathepsin L (Homo sapiens, UniProt P07711); assay: Inhibition of cathepsin L; conditions: Cbz-Phe-Arg-AMC 0.006 mM; for Cat L % I @ 1 uM: pH 6.0; for inhibition at 1 µM: pH 6, 1 uM, read-out: Cat L % I @ 1 uM
T3 construct: purchased Calbiochem 219402
T3 sequence (P07711 114-288 limits assumed): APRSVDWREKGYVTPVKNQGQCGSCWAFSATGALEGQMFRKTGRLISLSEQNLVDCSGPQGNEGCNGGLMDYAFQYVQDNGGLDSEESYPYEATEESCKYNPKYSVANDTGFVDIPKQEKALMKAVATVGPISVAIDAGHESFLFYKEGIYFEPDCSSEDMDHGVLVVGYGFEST
T3 sequence (P07711 292-333 limits assumed): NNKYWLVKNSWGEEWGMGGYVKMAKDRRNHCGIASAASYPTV

Calpain I = target: T4, Calpain I (Homo sapiens, UniProt P07384); assay: Inhibition of calpain I activity (IC50, fluorescence plate reader); conditions: substrate 0.2 mM Succ-Leu-Tyr-MNA, pH 7.5
T4 construct: made in house
T4 sequence (P07384 1-714): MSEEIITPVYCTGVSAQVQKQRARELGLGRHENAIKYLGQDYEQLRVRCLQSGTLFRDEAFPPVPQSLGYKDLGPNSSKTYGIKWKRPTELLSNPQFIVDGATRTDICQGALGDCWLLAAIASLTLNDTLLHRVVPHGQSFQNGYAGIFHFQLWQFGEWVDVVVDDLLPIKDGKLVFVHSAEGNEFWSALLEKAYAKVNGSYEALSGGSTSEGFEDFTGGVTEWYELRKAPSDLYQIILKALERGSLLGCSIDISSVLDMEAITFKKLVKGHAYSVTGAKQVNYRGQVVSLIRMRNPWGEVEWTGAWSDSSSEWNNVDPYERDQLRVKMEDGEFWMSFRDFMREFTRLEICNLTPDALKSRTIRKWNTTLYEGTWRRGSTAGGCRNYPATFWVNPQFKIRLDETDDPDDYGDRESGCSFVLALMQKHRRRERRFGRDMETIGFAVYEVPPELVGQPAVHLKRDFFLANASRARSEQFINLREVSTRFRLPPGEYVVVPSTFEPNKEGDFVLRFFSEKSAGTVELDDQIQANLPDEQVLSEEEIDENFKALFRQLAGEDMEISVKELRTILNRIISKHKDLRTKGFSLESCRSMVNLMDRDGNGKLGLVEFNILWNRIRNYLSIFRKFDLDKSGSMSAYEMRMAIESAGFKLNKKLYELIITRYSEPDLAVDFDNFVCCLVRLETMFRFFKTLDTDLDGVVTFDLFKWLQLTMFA
T4 sequence (P04632 1-268 partner): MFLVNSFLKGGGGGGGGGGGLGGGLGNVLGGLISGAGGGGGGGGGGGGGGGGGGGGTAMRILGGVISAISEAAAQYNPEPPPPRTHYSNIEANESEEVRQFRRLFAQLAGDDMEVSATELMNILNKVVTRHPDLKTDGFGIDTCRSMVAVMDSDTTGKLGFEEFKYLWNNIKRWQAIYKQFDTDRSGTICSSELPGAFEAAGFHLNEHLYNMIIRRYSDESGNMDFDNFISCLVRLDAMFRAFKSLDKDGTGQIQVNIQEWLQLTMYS
Method: as §1
as §2, with “(1): […]” for “(1):”

thrombin = target: T5, thrombin (Homo sapiens, UniProt P00734); assay: Inhibition of thrombin; conditions: 25 μM Bz-Phe-Val-Arg-AMC; for inhibition at 10 µM: pH 7.5, read-out: Thrombin % I @ 10 uM; for Thrombin % I @ 10 uM: pH 7.5
T5 construct: purchased Sigma Chem. Co. T-7009
Method: as §1, §2, §3
Inhibition of thrombin (Sigma Chem. Co. Cat. #T-7009) was evaluated as described for chymotrypsin except that the assay was performed in 50 mM Tris, 10 mM CaCl2, pH 7.5 and the substrate was 25 μM Bz-Phe-Val-Arg-AMC (Bachem cat#I-1080).

Chymotrypsin % I @ (α-chymotrypsin) [%] | Cat B % I @ 1 uM (cathepsin B) [%] | Cat L % I @ 1 uM (cathepsin L) [%] | IC50 (Calpain I) [nM] | inhibition at 10 µM (thrombin) [%] | Thrombin % I @ 10 uM (thrombin) [%] | inhibition at 10 µM (α-chymotrypsin) [%] | inhibition at 1 µM (cathepsin B) [%] | inhibition at 1 µM (cathepsin L) [%] | SMILES
 |  |  |  | 0 |  | 61 | 97 | 100 | CC(C)CC(CC(=O)CCCCc1ccccc1)C(=O)N[C@H](C=O)CC(C)C (stereo partly drawn) [Compound 16a, Ph(CH2)4 COCH2 CH(iBu)CO-Leu-H]
 |  |  | 55 | 0 |  | 21 | 99 | 100 | CCC(C(=O)CC(CC(C)C)C(=O)N[C@H](C=O)CC(C)C)c1ccccc1 (stereo partly drawn) [Compound 16b, CH3 CH2 CH(Ph)COCH2 CH(iBu)CO-Leu-H]
 |  |  | 50 | 1 |  | 62 | 97 | 100 | CC(C)CC(CC(=O)C(c1ccccc1)c1ccccc1)C(=O)N[C@H](C=O)CC(C)C (stereo partly drawn) [Compound 16c, Ph2 CHCOCH2 CH(iBu)CO-Leu-H]
 |  |  |  | 25 |  | 98 | 76 | 100 | CC(C)CC(CC(=O)C1c2ccccc2Oc2ccccc21)C(=O)N[C@H](C=O)CC(C)C (stereo partly drawn) [Compound 16d, Xanthene-COCH2 CH(iBu)CO-Leu-H]

More lines, now with the values behind:

SMILES | Chymotrypsin % I @ (α-chymotrypsin) [%] | Cat B % I @ 1 uM (cathepsin B) [%] | Cat L % I @ 1 uM (cathepsin L) [%] | IC50 (Calpain I) [nM] | inhibition at 10 µM (thrombin) [%] | Thrombin % I @ 10 uM (thrombin) [%] | inhibition at 10 µM (α-chymotrypsin) [%] | inhibition at 1 µM (cathepsin B) [%] | inhibition at 1 µM (cathepsin L) [%]
CC(C)CC(CC(=O)N1CCc2ccccc2C1)C(=O)N[C@H](C=O)Cc1ccccc1 (single isomer, unassigned) [Compound 16f-I, 2-THIQ-COCH2 CH(iBu)Cd-Phe-H] | 39 | 100 | 96 | 28 | 0 |  |  |  | 
CC(C)CC(CC(=O)N1CCc2ccccc2C1)C(=O)N[C@H](C=O)Cc1ccccc1 (single isomer, unassigned) [Compound 16f-II, 2-THIQ-COCH2 CH(iBu)CO-Phe-H (Diastereomer)] | 12 | 71 | 52 | 1000 |  | 0 |  |  | 
CC(C)CC(CC(=O)N1CCN(c2ccccc2)CC1)C(=O)N[C@H](C=O)CC(C)C (single isomer, unassigned) [Compound 16g-I, Ph-Piperazine-COCH2 CH(iBu)CO-Leu-H] |  | 100 | 97 | 227 | 0 |  | 0 |  | 
CC(C)CC(CC(=O)N1CCN(c2ccccc2)CC1)C(=O)N[C@H](C=O)CC(C)C (single isomer, unassigned) [Compound 16g-II, Ph-Piperazine-COCH2 CH(iBu)CO-Leu-H] | 0 | 67 | 35 | 4500 |  | 0 |  |  | 
CCNC(=O)C(=O)C(CC)NC(=O)C(CC(=O)CCCCc1ccccc1)CC(C)C (stereo not drawn) [Compound 8a, Ph(CH2)4 COCH2 CH(iBu)CO-Abu-CONHEt] |  |  |  | 8440 | 0 |  | 0 | 10 | 81
CCNC(=O)C(=O)C(CC)NC(=O)C(CC(=O)[C@@H](CC)c1ccccc1)CC(C)C (stereo partly drawn) [Compound 8b, CH3 CH2 CH(Ph)COCH2 CH(iBu)CO-Abu-CONHEt] |  |  |  | 6690 | 0 |  | 0 | 84 | 98
CCNC(=O)C(=O)C(CC)NC(=O)C(CC(=O)C(c1ccccc1)c1ccccc1)CC(C)C (stereo not drawn) [Compound 8c, Ph2 CHCOCH2 CH(iBu)CO-Abu-CONHEt] |  |  |  | 1730 | 0 |  | 6 | 100 | 100
CCNC(=O)C(=O)C(CC)NC(=O)C(CC(=O)C1c2ccccc2Oc2ccccc21)CC(C)C (stereo not drawn) [Compound 8d, Xanthene-COCH2 CH(iBu.)CO-Abu-CONHEt] |  |  |  | 485 | 10 |  | 7 | 78 | 100
CCNC(=O)C(=O)C(CC)NC(=O)C(CC(=O)[C@H](CC(C)C)NC(=O)OCc1ccccc1)CC(C)C (stereo partly drawn) [Compound 8e, Z-Leu-CH2 CH(iBu)CO-Abu-CONHEt] |  |  |  | 380 | 0 |  | 0 | 100 | 95
CCNC(=O)C(=O)C(CC(C)C)NC(=O)C(CC(=O)C1c2ccccc2Oc2ccccc21)CC(C)C (stereo not drawn) [Compound 8f, Xanthene-CO(CH2 CH(iBu)CO-Leu-CONHEt] |  |  |  | 130 | 13 |  | 93 | 98 | 100
CC(C)CC(CC(=O)CN(CC(C)C)C(=O)OCc1ccccc1)C(=O)N[C@H](C=O)CC(C)C (stereo partly drawn) [Compound 32, Z-N(iBu)CH2 COCH2 CH(iBu)CON H-Leu-H] |  |  |  | 71 |  |  |  |  | 

Source: patent US6329377A, “Ketomethylene group-containing cysteine and serine protease inhibitors” (Cephalon, Inc., priority 2000, dated 2001)
